The source of these data is patent publication US10822337B2, “TGF-β inhibitorC” (Rigel Pharmaceuticals, Inc., priority 2015, dated 2020).

The test system of experiment [1] is GDF8 signaling (GDF pSMAD, MPC11). As to the kind of experiment: AlphaScreen SureFire SMAD3 (p-Ser423/425) assay, inhibition of GDF8 signaling. The format is cell-based. The note with it: Mus musculus, MPC-11, p-SMAD-3 (Ser423/425) in cell lysate after GDF8 stimulation. The source says:
(§1) Example 2: AlphaScreen® SureFire® SMAD3 (p-Ser423/425) Assay
(§2) The p-SMAD-3 (Ser423/425) SureFire® assay has been designed to measure the phosphorylation of endogenous cellular p-SMAD-3 (Ser423/425) in cell lysates and is a system for the screening of both modulators of receptor activation (e.g. agonists and antagonists) as well as agents acting intracellularly, such as small molecule inhibitors of upstream events. The assay will measure p-SMAD-3 (Ser423/425) activation by either cloned or endogenous receptors, and can be applied to primary cells.
(§3) 1× Lysis buffer: 1 ml of 5× Lysis buffer was diluted with 4 ml of sterile water. After dilution, excess 1× Lysis buffer can be frozen and thawed up to 5 times without loss in activity.
(§4) P-SMAD-3 (Ser423/425) SureFire® Assay Protocols
(§5) Step A: Preparation of Buffers
(§6) Activation buffer: The buffer was warmed slowly to 37° C. and gently mixed to re-suspend. Activation buffer can be stored at room temperature with no loss in activity.
(§7) Reaction buffer: The buffer was kept at 4° C. while in use.
(§8) AlphaScreen® Protein A IgG Kit: The kit was stored at 4° C. in the dark.
(§9) Reaction buffer+Activation buffer+AlphaScreen® Acceptor beads: Reaction buffer (40 parts), Activation Buffer (10 parts) and Acceptor beads (1 part) were mixed and the mixture was stored at room temperature and used the same day. Mixture was added to 384-well plates; excess mixturewas discarded.
(§10) Dilution buffer+AlphaScreen® Donor beads: Dilution buffer (20 parts) and Donor beads (1 part) were mixed and the mixture was stored at room temperature and used the same day. Excess mixture was discarded.
(§11) Assay control samples: After reconstitution in 250 μl of water, lysates were at −20° C. in single use aliquots.
(§12) Step B: Preparation of Samples and Cells
(§13) 96-well Assay Protocol for 293FT and RMS13 adherent cells can be carried out manually or in high throughput with liquid handling robots.
(§14) The cells (80 μL of cells for 96 well plates) were plated in collagen coated tissue culture plates in RPMI or FreeStyle medium (Invitrogen) and incubated overnight. For manual analysis, 6 plates for GDF8, 6 plates for TGFβ, and optionally 6 plates for Alk5ca(ALKS constitutively active) were used.
(§15) The compound dilution plates were prepared as follows: 12 μL of DMSO was transferred into first column of 96-well plate, and 16 μL of DMSO was transferred into columns 2-12 of the 96-well plate. 12 μL of compound solution was transferred into first column of the DMSO-containing 96-well plate. Three-fold dilution was performed up to column 10 of the DMSO-containing 96-well plate.
(§16) Step C: Treatment and Analysis
(§17) The plate containing cells were treated with compounds for about 10 minutes, and then ligand was added. GDF8 or TGFb was added to plates to stimulate. 293FL cells were stimulatedfor 90 minutes at 37° C.; and RMS13 cells were stimulated for 60 minutes at 37° C. The medium was then removed from the cells, and 1× Lysis Buffer (about 25 μL) was added and the plate was gently agitated on plate shaker for 5-10 minutes.
(§18) The lysate (5 μL) was then placed into 384-well shallow plates avoiding the generation of bubbles. To this, the Reaction Buffer+Activation Buffer+AlphaScreen® Acceptor beadsmixture (5 μL) was added. The plate was sealed with adhesive cover and shielded from light (e.g., with metal foil), and agitated gently on plate shaker for 2 hours at room temperature.
(§19) Dilution buffer+AlphaScreen® Donor beads (2 μL) was then added, and the plate was intubated on the plate shaker for an additional 1½ hours. After completion, the plate was read on Synergy-4 or Enspire plate reader, using AlphaScreen® pSMAD3® settings.
(§20) Representative results for inhibition of GDF8 (data=GDF pSMAD (MPC11) (μM)) and TGF-β (data=TGF-β pSMAD (MPC-11) (μM)) signaling are shown in Table 1: […]
In general terms: In Alpha technology, singlet oxygen from a donor bead excites a nearby acceptor bead.

In experiment [2] the test system is TGF-β signaling (TGF-β pSMAD, MPC-11). As to the kind of experiment: AlphaScreen SureFire SMAD3 (p-Ser423/425) assay, inhibition of TGF-β signaling. The class given is cell-based. As to conditions: Mus musculus, p-SMAD-3 (Ser423/425) in cell lysate after TGF-β stimulation.
Source text: as §1, §2, §3, §4, §5, §6, §7, §8, §9, §10, §11, §12, §13, §14, §15, §16, §17, §18, §19, §20

With `Fc1ccc(F)c(-c2nn3c(c2-c2ccc4[nH]ncc4c2)CCC3)c1` [Compound 1, 5-(2-(2,5-difluorophenyl)-5,6-dihydro-4H-pyrrolo[1,2-b]pyrazol-3-yl)-1H-indazole], the IC50 in experiment [1] was 0.592 µM; in experiment [2], 2.03 µM.

Regarding `Cc1cc(-c2nn3c(c2-c2ccc4[nH]ncc4c2)CCC3)ccc1F` [Compound 2, 5-(2-(4-Fluoro-3-methylphenyl)-5,6-dihydro-4H-pyrrolo[1,2-b]pyrazol-3-yl)-1H-indazole], the IC50 turned out to be 0.045 µM in experiment [1] and 0.14 µM in experiment [2].

With `Cc1cc(-c2nn3c(c2-c2ccc4cn[nH]c4c2)CCC3)ccc1F` [Compound 3, 6-(2-(4-Fluoro-3-methylphenyl)-5,6-dihydro-4H-pyrrolo[1,2-b]pyrazol-3-yl)-1H-indazole], the half-inhibitory concentration (IC50) was 0.0641 µM in experiment [1] and 0.231 µM in experiment [2].

Turning to `Cc1cc(-c2nn3c(c2-c2ccnc4[nH]ccc24)CCC3)ccc1F` [Compound 4, 4-(2-(4-Fluoro-3-methylphenyl)-5,6-dihydro-4H-pyrrolo[1,2-b]pyrazol-3-yl)-1H-pyrrolo[2,3-b]pyridine], the 50% inhibitory concentration (IC50) stood at 0.604 µM in experiment [1] and 1.05 µM in experiment [2].

Consider `Fc1ccc(-c2nn3c(c2-c2ccc4[nH]ncc4c2)CCC3)cc1` [Compound 5, 5-(2-(4-Fluorophenyl)-5,6-dihydro-4H-pyrrolo[1,2-b]pyrazol-3-yl)-1H-indazole], for which the 50% inhibitory concentration (IC50) in experiment [1] is 0.129 µM; in experiment [2], 0.5 µM.

Turning to `Fc1ccc(-c2nn3c(c2-c2ccc4cn[nH]c4c2)CCC3)cc1` [Compound 6, 6-(2-(4-Fluorophenyl)-5,6-dihydro-4H-pyrrolo[1,2-b]pyrazol-3-yl)-1H-indazole], the figures for the concentration for half-maximal inhibition (IC50) in experiment [1] and in experiment [2] were 0.2 µM and 1.04 µM, respectively.

Regarding `Cc1cccc(-c2nn3c(c2-c2ccc4[nH]ncc4c2)CCC3)c1` [Compound 7, 5-(2-(m-Tolyl)-5,6-dihydro-4H-pyrrolo[1,2-b]pyrazol-3-yl)-1H-indazole], the IC50 in experiment [1] turned out to be 0.0151 µM; in experiment [2], 0.0397 µM.

Consider `Cc1cccc(-c2nn3c(c2-c2ccc4cn[nH]c4c2)CCC3)c1` [Compound 8, 6-(2-(m-Tolyl)-5,6-dihydro-4H-pyrrolo[1,2-b]pyrazol-3-yl)-1H-indazole], for which the results for the 50% inhibitory concentration (IC50) in experiment [1] and in experiment [2] were 0.0213 µM and 0.0794 µM, respectively.

`Cc1cc(-c2nn3c(c2-c2ccc4nc[nH]c4c2)CCC3)ccc1F` [Compound 9, 6-(2-(4-Fluoro-3-methylphenyl)-5,6-dihydro-4H-pyrrolo[1,2-b]pyrazol-3-yl)-1H-benzo[d]imidazole]: the figures for the half-maximal inhibitory concentration (IC50) in experiment [1] and in experiment [2] were 0.0515 µM and 0.152 µM, respectively.

As for `Cc1cccc(-c2nn3c(c2-c2ccc4c(cnn4C)c2)CCC3)c1` [Compound 10, 1-Methyl-5-(2-(m-tolyl)-5,6-dihydro-4H-pyrrolo[1,2-b]pyrazol-3-yl)-1H-indazole], the IC50 in experiment [1] stood at 0.643 µM; in experiment [2] it was 2.59 µM.

For the compound `Cc1cccc(-c2nn3c(c2-c2ccc4ncsc4c2)CCC3)c1` [Compound 12, 6-(2-(m-Tolyl)-5,6-dihydro-4H-pyrrolo[1,2-b]pyrazol-3-yl)benzo[d]thiazole], the IC50 in experiment [1] is 0.0468 µM; in experiment [2], 0.117 µM.

Take `Cn1cnc2ccc(-c3c(-c4ccc(F)cc4)nn4c3CCC4)cc21` [Compound 13, 6-(2-(4-Fluorophenyl)-5,6-dihydro-4H-pyrrolo[1,2-b]pyrazol-3-yl)-1-methyl-1H-benzo[d]imidazole]: the IC50 was 0.0796 µM in experiment [1] and 0.182 µM in experiment [2].

As to `Fc1ccc(-c2nn3c(c2-c2ccc4ncsc4c2)CCC3)cc1` [Compound 14, 6-(2-(4-Fluorophenyl)-5,6-dihydro-4H-pyrrolo[1,2-b]pyrazol-3-yl)benzo[d]thiazole], the concentration for half-maximal inhibition (IC50) was determined as 0.295 µM in experiment [1] and 0.976 µM in experiment [2].

As to `Cc1cc(-c2nn3c(c2-c2ccc4c(cnn4C)c2)CCC3)ccc1F` [Compound 15, 5-(2-(4-Fluoro-3-methylphenyl)-5,6-dihydro-4H-pyrrolo[1,2-b]pyrazol-3-yl)-1-methyl-1H-indazole], the IC50 in experiment [1] came out at 0.987 µM; in experiment [2], 2.73 µM.

`Cc1cc(-c2nn3c(c2-c2ccc4ncn(C)c4c2)CCC3)ccc1F` [Compound 16, 6-(2-(4-Fluoro-3-methylphenyl)-5,6-dihydro-4H-pyrrolo[1,2-b]pyrazol-3-yl)-1-methyl-1H-benzo[d]imidazole]: the IC50 in experiment [1] came out at 0.065 µM; in experiment [2], 0.132 µM.

Turning to `Cc1cc(-c2nn3c(c2-c2ccc4ncsc4c2)CCC3)ccc1F` [Compound 17, 6-(2-(4-Fluoro-3-methylphenyl)-5,6-dihydro-4H-pyrrolo[1,2-b]pyrazol-3-yl)benzo[d]thiazole], the concentration for half-maximal inhibition (IC50) in experiment [1] amounted to 0.122 µM; in experiment [2], 0.375 µM.

With `Cc1cccc(-c2nn3c(c2-c2ccc4nccn4c2)CCC3)c1` [Compound 18, 6-(2-(m-Tolyl)-5,6-dihydro-4H-pyrrolo[1,2-b]pyrazol-3-yl)imidazo[1,2-a]pyridine], the IC50 was 0.065 µM in experiment [1] and 0.369 µM in experiment [2].

As for `Fc1ccc(-c2nn3c(c2-c2ccc4nccn4c2)CCC3)cc1` [Compound 19, 6-(2-(4-Fluorophenyl)-5,6-dihydro-4H-pyrrolo[1,2-b]pyrazol-3-yl)imidazo[1,2-a]pyridine], the IC50 in experiment [1] is 0.309 µM; in experiment [2], 1.77 µM.

As to `Cc1cc(-c2nn3c(c2-c2ccc4nccn4c2)CCC3)ccc1F` [Compound 20, 6-(2-(4-Fluoro-3-methylphenyl)-5,6-dihydro-4H-pyrrolo[1,2-b]pyrazol-3-yl)imidazo[1,2-a]pyridine], the figures for the IC50 in experiment [1] and in experiment [2] were 0.121 µM and 0.366 µM, respectively.

For the compound `COc1cccc(-c2nn3c(c2-c2ccc4nccn4c2)CCC3)c1` [Compound 21, 6-(2-(3-Methoxyphenyl)-5,6-dihydro-4H-pyrrolo[1,2-b]pyrazol-3-yl)imidazo[1,2-a]pyridine], the half-inhibitory concentration (IC50) in experiment [1] stood at 0.31 µM; in experiment [2] it was 1.04 µM.

As for `Clc1cccc(-c2nn3c(c2-c2ccc4[nH]ncc4c2)CCC3)c1` [Compound 22, 5-(2-(3-Chlorophenyl)-5,6-dihydro-4H-pyrrolo[1,2-b]pyrazol-3-yl)-1H-indazole], the values for the IC50 in experiment [1] and in experiment [2] were 0.0925 µM and 0.183 µM, respectively.

Consider `Clc1cccc(-c2nn3c(c2-c2ccc4cn[nH]c4c2)CCC3)c1` [Compound 23, 6-(2-(3-Chlorophenyl)-5,6-dihydro-4H-pyrrolo[1,2-b]pyrazol-3-yl)-1H-indazole], for which the IC50 is 0.122 µM in experiment [1] and 0.24 µM in experiment [2].

For `Clc1cccc(-c2nn3c(c2-c2ccc4nccn4c2)CCC3)c1` [Compound 25, 6-(2-(3-Chlorophenyl)-5,6-dihydro-4H-pyrrolo[1,2-b]pyrazol-3-yl)imidazo[1,2-a]pyridine], the IC50 in experiment [1] was 0.0695 µM; in experiment [2] it was 0.14 µM.

Take `Clc1cccc(-c2nn3c(c2-c2ccc4ncsc4c2)CCC3)c1` [Compound 26, 6-(2-(3-Chlorophenyl)-5,6-dihydro-4H-pyrrolo[1,2-b]pyrazol-3-yl)benzo[d]thiazole]: the results for the IC50 in experiment [1] and in experiment [2] were 0.067 µM and 0.133 µM, respectively.

For the compound `COc1cccc(-c2nn3c(c2-c2ccc4[nH]ncc4c2)CCC3)c1` [Compound 27, 5-(2-(3-Methoxyphenyl)-5,6-dihydro-4H-pyrrolo[1,2-b]pyrazol-3-yl)-1H-indazole], the IC50 in experiment [1] was 0.206 µM; in experiment [2], 0.847 µM.

Take `COc1ccc(-c2nn3c(c2-c2ccc4ncccc4c2)CCC3)cc1` [Compound 101, 6-(2-(4-Methoxyphenyl)-5,6-dihydro-4H-pyrrolo[1,2-b]pyrazol-3-yl)quinoline]: the half-inhibitory concentration (IC50) in experiment [1] amounted to 2.45 µM.

By IC50 is commonly meant the concentration that gives 50% inhibition.
